Reference: patent US11608323B2 (SYNGENTA LIMITED, priority 2013, dated 2023)

Experiments:
Format in all cases: in vivo
ZEAMX [1] = assay: Pre-emergence herbicidal activity, glasshouse pot test; details: rate 1000 g/Ha, evaluated after 13 days, scale 0-5
Protocol: (§1) Seeds of a variety of test species were sown in standard soil in pots. After cultivation for one day (pre-emergence) under controlled conditions in a glasshouse (at 24/16° C., day/night; 14 hours light; 65% humidity), the plants were sprayed with an aqueous spray solution derived from the formulation of the technical active ingredient in acetone/water (50:50) solution containing 0.5% Tween 20 (polyoxyethelyene sorbitan monolaurate, CAS RN 9005-64-5). The test plants were then grown in a glasshouse under controlled conditions (at 24/16° C., day/night; 14 hours light; 65% humidity) and watered twice daily. After 13 days, the test was evaluated (5=total damage to plant; 0=no damage to plant).

ECHCG [2] = assay: as above; details: rate 1000 g/Ha, evaluated after 13 days, scale 0-5
Protocol: as §1

ABUTH [3] = assay: as above; details: rate 1000 g/Ha, evaluated after 13 days, scale 0-5
Protocol: as §1

AMARE [4] = assay: as above; details: rate 1000 g/Ha, evaluated after 13 days, scale 0-5
Protocol: as §1

SETFA [5] = assay: as above; details: rate 1000 g/Ha, evaluated after 13 days, scale 0-5
Protocol: as §1

ZEAMX [6] = assay: Post-emergence herbicidal activity, glasshouse pot test; details: Zea mays; application post-emergence; rate 1000 g/Ha; evaluated after 13 days
Protocol: (§2) Seeds of a variety of test species were sown in standard soil in pots. After 8 days cultivation (post-emergence) under controlled conditions in a glasshouse (at 24/16° C., day/night; 14 hours light; 65% humidity), the plants were sprayed with an aqueous spray solution derived from the formulation of the technical active ingredient in acetone/water (50:50) solution containing 0.5% Tween 20 (polyoxyethelyene sorbitan monolaurate, CAS RN 9005-64-5). The test plants were then grown in a glasshouse under controlled conditions (at 24/16° C., day/night; 14 hours light; 65% humidity) and watered twice daily. After 13 days, the test was evaluated (5=total damage to plant; 0=no damage to plant).

ECHCG [7] = assay: as above; details: Echinochloa crus-galli; application post-emergence; rate 1000 g/Ha; evaluated after 13 days
Protocol: as §2

ABUTH [8] = assay: as above; details: Abutilon theophrasti; application post-emergence; rate 1000 g/Ha; evaluated after 13 days
Protocol: as §2

AMARE [9] = assay: as above; details: Amaranthus retroflexus; application post-emergence; rate 1000 g/Ha; evaluated after 13 days
Protocol: as §2

SETFA [10] = assay: as above; details: Setaria faberi; application post-emergence; rate 1000 g/Ha; evaluated after 13 days
Protocol: as §2

| Compound | ZEAMX damage score, application pre-emergence (ZEAMX [1]) | ECHCG damage score, application pre-emergence (ECHCG [2]) | ABUTH damage score, application pre-emergence (ABUTH [3]) | AMARE damage score, application pre-emergence (AMARE [4]) | SETFA damage score, application pre-emergence (SETFA [5]) | Post-emergence herbicidal activity ZEAMX (damage score 0-5) (ZEAMX [6]) | Post-emergence herbicidal activity ECHCG (damage score 0-5) (ECHCG [7]) | Post-emergence herbicidal activity ABUTH (damage score 0-5) (ABUTH [8]) | Post-emergence herbicidal activity AMARE (damage score 0-5) (AMARE [9]) | Post-emergence herbicidal activity SETFA (damage score 0-5) (SETFA [10]) |
| --- | --- | --- | --- | --- | --- | --- | --- | --- | --- | --- |
| CCOC1C(O)N(c2cc(C(F)(F)C(F)(F)F)ccn2)C(=O)N1C (centres unmarked) [Compound A82] | 2 | 3 | 5 | 5 | 3 | 2 | 4 | 5 | 5 | 4 |
| CCN1CC(O)N(c2cc(C(F)(F)F)ccn2)C1=O (centres unmarked) [Compound A95] | 1 | 5 | 5 | 5 | 5 | 2 | 5 | 5 | 5 | 5 |
| COC(C)(C)c1ccnc(N2C(=O)N(C)C(C)C2O)c1 (centres unmarked) [Compound A89] | 2 | 4 | 5 | 5 | 4 | 3 | 5 | 5 | 5 | 5 |
| C#CCN1C(=O)N(c2cc(C(F)(F)F)ccn2)C(O)C1C (centres unmarked) [Compound A87] | 3 | 4 | 5 | 5 | 4 | 4 | 5 | 5 | 5 | 5 |
| CC1C(O)N(c2cc(C(F)(F)Cl)ccn2)C(=O)N1C (centres unmarked) [Compound A85] | 3 | 5 | 5 | 5 | 5 | 4 | 5 | 5 | 5 | 5 |
| C=CC1C(O)N(c2cc(C(F)(F)F)ccn2)C(=O)N1C (centres unmarked) [Compound A31] | 2 | 5 | 5 | 5 | 5 | 4 | 5 | 5 | 5 | 5 |
| CC1C(O)N(c2cc(C(F)(F)C(F)(F)F)ccn2)C(=O)N1C (single isomer, unassigned) [Compound A72] | 2 | 5 | 5 | 5 | 5 | 2 | 5 | 5 | 5 | 5 |
| CCO[C@@H]1[C@@H](OC(=O)[C@](OC)(c2ccccc2)C(F)(F)F)N(c2cc(C(F)(F)F)ccn2)C(=O)N1C [Compound A102] | 1 | 4 | 5 | 5 | 3 | 1 | 2 | 5 | 5 | 1 |
